From ChEMBL document CHEMBL4765481, “Sialyltransferase Inhibitors Suppress Breast Cancer Metastasis” (J Med Chem, 2021) come the findings set out here.

By IC50 is commonly meant the concentration that inhibits the measured activity by half.

Structures are written as SMILES. Activity calls are given as the source filed them. No cut-off for these calls is given here.

Series [1] concerns MDA-MB-231. The series can be described thus: Antiangiogenesis activity against luciferase-tagged human MDA-MB-231 cells xenografted in BALB/c mouse assessed as reduction in number of vessels surrounding tumor nodules by measuring CD31 expression at 10 mg/kg/3 days, ip measured after 8 weeks by immunostaining. Type of series: functional, organism-based.
Series [2] in a line: Toxicity in BALB/c mouse xenografted with luciferase-tagged human MDA-MB-231 cells assessed as effect on body weight at 10 mg/kg/3 days, ip measured after 8 weeks. In kind it is organism-based. Conditions: in vivo, 1344 h. On the technique in general: Xenograft models place foreign cells or tissue in a host animal.
Series [3] is described as follows: Toxicity in transgenic zebrafish embryos assessed as effect on gross morphology at 20 uM measured at 30 hrs postfertilization by fluorescence microscopy. Conditions: in vivo. Set-up: species or system Danio rerio.
Series [4] has as its system MDA-MB-231. The series can be described thus: Inhibition of Sialyltransferase in human MDA-MB-231 cells assessed as decrease p-talin-1 association with integrins beta1 and beta 3 after 48 hrs by immunofluorescence and coimmunoprecipitation assay. Type of series: cell-based.
Series [5] relates to MDA-MB-231. The series can be described thus: Inhibition of serum-induced cell migration of human MDA-MB-231 cells incubated for 16 hrs by Boyden chamber assay. Type of series: functional, cell-based. The following applies: MDA-MB-231, 16 h.
The subject of series [6] is MDA-MB-231. The series can be described thus: Antitumor activity against luciferase-tagged human MDA-MB-231 cells xenografted in BALB/c mouse assessed as reduction in number of metastatic foci in lungs at 10 mg/kg/3 days, ip measured after 8 weeks by histological analysis. Type of series: functional, organism-based.
Series [7] is described as follows: Toxicity in BALB/c mouse xenografted with luciferase-tagged human MDA-MB-231 cells at 10 mg/kg/3 days, ip measured after 8 weeks by blood tests. Conditions: in vivo, 1344 h. Type of series: organism-based.
The species entered for series [8] is Rattus norvegicus. The series can be described thus: Selectivity ratio of inhibition of rat alpha-2,3-O-ST3GALI at 1000 uM to IC50 for inhibition of rat alpha-2,3-N-ST3GALIII.
The test system of series [9] is MDA-MB-231. The series can be described thus: Inhibition of serum-induced cell migration of human MDA-MB-231 cells at 20 uM incubated for 16 hrs by Boyden chamber assay. Type of series: functional, cell-based.
Series [10] has as its system MDA-MB-231. The series can be described thus: Inhibition of Sialyltransferase in human MDA-MB-231 cells assessed as reduction in FAK Tyr576/577 phosphorylation level at 10 to 20 uM incubated for 48 hrs by immunoblot analysis. Conditions: dose 10-20 µM. Type of series: cell-based. For orientation: In western blotting, separated proteins are transferred to a membrane and probed.

The target of series [11] is T1, CMP-N-acetylneuraminate-beta-1,4-galactoside alpha-2,3-sialyltransferase (Rattus norvegicus, UniProt Q02734).
T1 sequence (Q02734 whole entry): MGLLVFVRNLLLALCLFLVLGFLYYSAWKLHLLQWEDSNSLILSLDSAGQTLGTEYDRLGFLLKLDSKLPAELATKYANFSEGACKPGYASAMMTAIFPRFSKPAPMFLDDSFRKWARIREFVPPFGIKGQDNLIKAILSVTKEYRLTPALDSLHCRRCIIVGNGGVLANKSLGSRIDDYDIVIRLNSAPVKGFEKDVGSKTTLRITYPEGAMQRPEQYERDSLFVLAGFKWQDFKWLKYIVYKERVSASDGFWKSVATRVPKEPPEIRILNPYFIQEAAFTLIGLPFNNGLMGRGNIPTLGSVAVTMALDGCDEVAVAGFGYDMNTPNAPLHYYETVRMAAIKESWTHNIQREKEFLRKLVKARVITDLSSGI
The series can be described thus: Inhibition of rat alpha-2,3-N-ST3GALIII assessed as reduction in sialylated-product formation using Gal-beta1-4Glc and CMP-NeuSAc incubated for 1.5 hrs by reverse-phase HPLC analysis.

Turning to `C[C@H](CCC(=O)OCCOCCOCCN=[N+]=[N-])[C@H]1CC[C@H]2[C@@H]3CC[C@@H]4C[C@H](OC(=O)[C@H](CC(=O)O)Nc5ccc([N+](=O)[O-])c6nonc56)CC[C@]4(C)[C@H]3CC[C@]12C`, the result in series [1] and in [6] was Active. Further, the Activity result in series [2], in series [3] and in series [7] was “Non-Toxic” in each case. Further, the inhibition entry in series [4] and in series [10] was “Dose-dependent effect” throughout. For the same compound, the IC50 in series [5] worked out at 10.6 µM; in [11] it was 1.74 µM. Also, the Selectivity ratio in series [8] was less than 575. In addition, the inhibition result in series [9] is “Active”.
